Source: patent US11884734B2, “Anti-MET antibodies and methods of use thereof” (Celldex Therapeutics, Inc., priority 2015, dated 2024)

Columns and labels:
[1] = molecular target: T1, MET (Homo sapiens, UniProt P08581); assay: MET ubiquitination in A549 cells (immunoprecipitation/immunoblot); format: cell-based; set-up: cell lines expressing wild-type MET such as A549 and U87MG cells; endogenous in cells; host or cells: A549; settings: 1 nM, 15 min, FIG. 12B
Excerpt: Whether the anti-MET antibodies promote MET ubiquitination and degradation was investigated next. […] Cell lysates were precipitated with anti-ubiquitin antibody conjugated agarose (Santa Cruz) followed by immunoblotting with anti-MET antibody (Cell Signaling Technology). […] Thus, these antibodies promote receptor degradation utilizing the ubiquitination mechanism instead of protease-mediated shedding. This is in contrast with membrane protease-mediated receptor shedding observed previously with antibodies such as DN30 (Schleter, 2010, J. Biol. Chem. 285(34):26335-26340).

[2] = molecular target: T1, MET; assay: HGF-induced MET degradation in A549 cells; format: cell-based; set-up: cell lines expressing wild-type MET such as A549 and U87MG cells; endogenous in cells; host or cells: A549; settings: A549 cells (wild-type MET)
Excerpt: (§1) MET exon 14 mutations have been reported in many cancers (The Cancer Genome Atlas Research Network, 2014, Nature, 511(7511):543-550; Frampton et al., 2015, Cancer Discov. 5(8):850-859). MET exon 14 mutations confer reduced HGF-induced receptor degradation. Deletion of exon 14 (Leu964-Asp1010) removes the Tyr1003 site necessary for Cbl binding leading to a substantial decrease HGF-induced receptor degradation as previously reported (Kong-Beltram et al., 2006, Cancer Res. 66(1):283-289). […] In a non-small-cell lung cancer cell line H596, a functional MET protein is expressed without the 47 amino acids encoded by exon 14 (Kong-Beltram et al., 2006, Cancer Res. 66(1):283-289).

[3] = molecular target: T1, MET; assay: HGF-induced MET degradation in U87MG cells; format: cell-based; settings: U87MG cells (wild-type MET)
Excerpt: as §1

[4] = molecular target: T2, MET (Homo sapiens, UniProt P08581, DEL964-1010); assay: MET degradation in H596 cells (exon 14 deleted MET); format: cell-based; settings: 1 nM HGF, 24 hrs
T2 construct: In a non-small-cell lung cancer cell line H596, a functional MET protein is expressed without the 47 amino acids encoded by exon 14; endogenous in cells; host or cells: H596 (NSCLC / adenosquamous carcinoma)
Excerpt: as §1

[5] = test system: U87MG tumor cells; assay: U87MG orthotopic mouse model (bioluminescence); format: in vivo; settings: 25 mg/kg; compared with control chimeric IgG1 anti-KLH antibody
Protocol: The ability of the anti-MET antibodies to inhibit tumor growth in vivo is assessed as described in Sections 6.2.1.3, 6.2.1.4, and 6.2.1.5. […] Treatment was performed biweekly, every three to four days, for seven weeks.

[6] = test system: MET, AKT and MAPK phosphorylation; assay: Akt and MAPK phosphorylation analysis by western blot in A549 cells; format: cell-based, human; settings: HGF treatment
Protocol: Western blots were generated from total protein separated on a 10% SDS-PAGE gel. Resolved protein was transferred to nitrocellulose (Bio-Rad), blocked for 1 h with 5% skim milk at 25° C., and then incubated with the indicated antibody overnight at 4° C. The anti-pAkt antibody, anti-pMAPK antibody (Cell Signaling cat. No. 9271 and Cell Signaling cat. No. 4370, respectively), and anti-1234/1235 MET XP antibody (Cell Signaling cat. No. 3077) were used at a concentration of 1 μg/mL in 5% skim milk. Secondary mouse and rabbit antibodies (GE Healthcare) were used at a 1:5000 dilution for 1 h at 25° C. SuperSignal® West Picto Chemiluminescent HRP Substrate (Thermo Scientific cat. No. 34078) was used as directed.

[7] = molecular target: T1, MET; assay: MET shedding ELISA (sMET-ECD release) in A549 cells; format: cell-based; set-up: cell lines expressing wild-type MET such as A549 cells; endogenous in cells; host or cells: A549; settings: 24 hrs, 1 nM of antibody, FIG. 12A

## HGF: MET ligand used to stimulate cells
[1]
  MET receptor ubiquitination: induced potent receptor ubiquitination
[2]
  receptor degradation: approximately 80%
[3]
  receptor degradation: approximately 80%
[4]
  receptor degradation: 30%

## C[C@@H](Oc1cc(-c2cnn(C3CCNCC3)c2)cnc1N)c1c(Cl)ccc(F)c1Cl [crizotinib]
[5]
  tumor growth (bioluminescence): resulted in similar tumor growth
[6]
  MET protein levels, western blot: not observed
  activation of MET (phosphorylated MET), western blot: inhibited activation of MET
  activation of downstream signaling components Akt and MAPK (phosphorylation), western blot: reduces the activation of downstream signaling components Akt and MAPK

## CCCCCCCCCCCCCC(=O)O[C@@H]1[C@@H](C)[C@@]2(O)[C@@H](C=C(CO)C[C@]3(O)C(=O)C(C)=C[C@@H]23)[C@@H]2C(C)(C)[C@]12OC(C)=O [PMA, phorbol 12-myristate 13-acetate]
[7]
  MET shedding (release of sMET-ECD into culture medium): induced substantial MET shedding
